pEC50: −log10 of the molar value.
Each compound was assayed on primary human lung fibroblasts and primary rodent HSCs (assay: High content imaging assay (α-SMA staining, cell morphology) of fibroblast to myofibroblast transdifferentiation, confirmed by Western blot and RT-PCR). Details: Homo sapiens, Fibroblast; imaging and western based activity.
Summary of the method: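 Primary human lung fibroblasts and primary rodent HSCs were serum-starved and then TGF-β-treated to drive transdifferentiation in 384-well format, with SB-431542 as positive control. Readouts were α-SMA immunofluorescence and cell morphology by high-content imaging, confirmed by Western blot and RT-PCR in 4-day, 4-point dose-response assays; EC50 values are graded.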

Row | SMILES | pEC50
1 | CC(C)Cn1ncn(-c2ccc(N3CCN(c4ccc(OC[C@@H]5CO[C@@](Cn6nccn6)(c6ccccc6)O5)cc4)CC3)cc2)c1=O [Compound 19] | 5.30 to 6.30
2 | CCC(C)n1ncn(-c2ccc(N3CCN(c4ccc(OC(C)[C@@H]5CO[C@@](Cn6nccn6)(c6ccccc6)O5)cc4)CC3)cc2)c1=O (some centres unmarked) [Compound 140] | 4.52 to 5.30
3 | CCC(C)n1ncn(-c2ccc(N3CCN(c4ccc(OC[C@@H]5CO[C@@](Cn6ncc7ccccc76)(c6ccc(Cl)cc6Cl)O5)cc4)CC3)cc2)c1=O (some centres unmarked) [Compound 49] | 5.30 to 6.30
4 | CCC(CC)n1ncn(-c2ccc(N3CCN(c4ccc(OC[C@@H]5CO[C@@](Cn6cccn6)(c6ccc(C#N)cc6C)O5)cc4)CC3)cc2)c1=O [Compound 176] | > 6.30
5 | CCC(C)n1ncn(-c2ccc(N3CCN(c4ccc(OC[C@@H]5CO[C@@](Cc6ccnnc6)(c6ccc(OC(F)(F)F)cc6)O5)cc4)CC3)cc2)c1=O (some centres unmarked) [Compound 135] | > 6.30
6 | CCC(C)n1ncn(-c2ccc(N3CCN(c4ccc(OC[C@@H]5CO[C@@](Cn6nccn6)(c6ccc(Cl)cc6Cl)O5)cc4C#N)CC3)cc2)c1=O (some centres unmarked) [Compound 56] | 5.30 to 6.30
7 | CC[C@H](C)n1ncn(-c2ccc(N3CCN(c4ccc(OC[C@H]5CO[C@](Cn6nccn6)(c6ccccc6)O5)cc4)CC3)cc2)c1=O [Compound 183, 4-(4-(4-(4-(((2R,4S)-2-((2H-1,2,3-triazol-2-yl)methyl)-2-phenyl-1,3-dioxolan-4-yl)methoxy)phenyl)piperazin-1-yl)phenyl)-(S)-1-sec-butyl-1H-1,2,4-triazol-5(4H)-one] | > 6.30
8 | O=c1n(-c2ccc(N3CCN(c4ccc(OC[C@@H]5CO[C@@](Cn6nccn6)(c6ccccc6)O5)cc4)CC3)cc2)cnn1CC1CCCC1 [Compound 20] | 4.52 to 5.30
9 | CCC(C)n1ncn(-c2ccc(N3CCN(c4ccc(OC[C@@H]5CO[C@@](Cn6nccn6)(c6cc(C#N)ccc6C)O5)cc4)CC3)cc2)c1=O (some centres unmarked) [Compound 28] | 4.52 to 5.30
10 | CCC(C)n1ncn(-c2ccc(N3CCN(c4ccc(OC[C@@H]5CO[C@@](Cn6nccn6)(c6ccccc6)O5)c(CN)c4)CC3)cc2)c1=O (some centres unmarked) [Compound 68] | > 6.30
11 | CC(=O)C(C)n1cnn(-c2ccc(N3CCN(c4ccc(OC[C@@H]5CO[C@@](Cn6nccn6)(c6ccc(Cl)cc6Cl)O5)cc4)CC3)cc2)c1=O (some centres unmarked) [Compound 10] | 5.30 to 6.30
12 | CCC(C)n1ncn(-c2ccc(N3CCN(c4ccc(OC[C@@H]5CO[C@@](Cc6ccnnc6)(c6ccccc6C(F)(F)F)O5)cc4)CC3)cc2)c1=O (some centres unmarked) [Compound 132] | > 6.30
13 | CCC(C)n1ncn(-c2ccc(N3CCN(c4ccc(OC[C@@H]5CO[C@@](Cn6cccn6)(c6ccccc6C(N)=O)O5)cc4)CC3)cc2)c1=O (some centres unmarked) [Compound 101] | 4.52 to 5.30
14 | CCC(C)n1ncn(-c2ccc(N3CCN(c4ccc(OC[C@H]5CO[C@](Cn6nccn6)(c6ccccc6)C5)cc4C#N)CC3)cc2)c1=O (some centres unmarked) [Compound 149] | < 4.52
15 | CCC(C)n1ncn(-c2ccc(N3CCN(c4ccc(OC[C@@H]5CO[C@](Cc6ccnnc6)(c6ccc(Cl)c(Cl)c6)O5)cc4)CC3)cc2)c1=O (some centres unmarked) [Compound 106] | > 6.30
16 | CCC(C)n1ncn(-c2ccc(N3CCN(c4cccc(OC[C@@H]5CO[C@@](Cn6nccn6)(c6ccc(Cl)cc6Cl)O5)c4)CC3)cc2)c1=O (some centres unmarked) [Compound 78] | 5.30 to 6.30

Row | SMILES | pEC50
17 | CCC(C)n1ncn(-c2ccc(N3CCCN(c4ccc(OC[C@@H]5CO[C@@](Cn6nccn6)(c6ccc(Cl)cc6Cl)O5)cc4)CC3)cc2)c1=O (some centres unmarked) [Compound 74] | 5.30 to 6.30
18 | CC[C@H](C)n1ncn(-c2ccc(N3CCN(c4ccc(OC[C@@H]5CO[C@](Cn6nccn6)(c6ccccc6)O5)cc4)CC3)cc2)c1=O [Compound 190] | 5.30 to 6.30
19 | CCC(C)n1ncn(-c2ccc(N3CCN(c4ccc(OC[C@@H]5CO[C@@](Cn6cccn6)(c6ccc(Cl)c(Cl)c6)O5)cc4)CC3)cc2)c1=O (some centres unmarked) [Compound 84] | 5.30 to 6.30
20 | O=c1n(-c2ccc(N3CCN(c4ccc(OC[C@@H]5CO[C@@](Cn6nccn6)(c6ccc(Cl)cc6Cl)O5)cc4)CC3)cc2)cnn1CC1CCCC1 [Compound 14] | > 6.30
21 | CCC(C)n1ncn(-c2ccc(N3CCN(c4ccc(OC[C@@H]5CO[C@@](Cc6ccnnc6)(c6cccc(C(F)(F)F)c6)O5)cc4)CC3)cc2)c1=O (some centres unmarked) [Compound 133] | > 6.30
22 | CCCC(C)n1ncn(-c2ccc(N3CCN(c4ccc(OC[C@@H]5CO[C@@](Cn6nccn6)(c6ccc(C#N)cc6C)O5)cc4)CC3)cc2)c1=O (some centres unmarked) [Compound 23] | 5.30 to 6.30
23 | CC[C@@H](C)n1ncn(-c2ccc(N3CCN(c4ccc(OC[C@H]5CO[C@](Cn6cccn6)(c6ccc(C#N)cc6C)O5)cc4)CC3)cc2)c1=O [Compound 175] | 4.52 to 5.30
24 | CCC(C)n1ncn(-c2ccc(N3CCN(c4ccc(OC[C@H]5CO[C@](Cn6nccn6)(c6ccccc6)C5)cc4)CC3)cc2)c1=O (some centres unmarked) [Compound 147] | < 4.52
25 | CCC(C)n1ncn(-c2ccc(N3CCN(c4ccc(OC[C@@H]5CO[C@@](Cc6ccnnc6)(c6cccc(OC)c6)O5)cc4)CC3)cc2)c1=O (some centres unmarked) [Compound 128] | 5.30 to 6.30
26 | CCC(C)n1cnn(-c2ccc(N3CCN(c4ccc(OC[C@@H]5CO[C@@](Cc6ccnnc6)(c6ccccc6)O5)cc4)CC3)cc2)c1=O (mixture of isomers) [Compound 102] | 5.30 to 6.30
27 | CCC(C)n1ncn(-c2ccc(N3CCN(c4ccc(OC[C@@H]5CO[C@](Cc6ccnnc6)(c6ccc(C)cc6)O5)cc4)CC3)cc2)c1=O (some centres unmarked) [Compound 118] | 4.52 to 5.30
28 | O=c1n(-c2ccc(N3CCN(c4ccc(OC[C@@H]5CO[C@@](Cn6nccn6)(c6ccccc6)O5)cc4F)CC3)cc2)cnn1CC1CCCC1 [Compound 157] | > 6.30
29 | CCC(C)n1ncn(-c2ccc(N3CCN(c4ccc(OC[C@@H]5CO[C@@](Cn6cccn6)(c6ccccc6C#N)O5)cc4)CC3)cc2)c1=O (some centres unmarked) [Compound 90] | 5.30 to 6.30
30 | CCC(C)n1ncn(-c2ccc(N3CCN(c4ccc(OC[C@@H]5CO[C@@](Cn6cccn6)(c6ccc(OC)cc6)O5)cc4)CC3)cc2)c1=O (some centres unmarked) [Compound 87] | > 6.30
31 | CCC(C)n1ncn(-c2ccc(N3CCN(c4ccc(OC[C@@H]5CO[C@@](Cn6nccn6)(c6ccccc6)O5)cc4)CC3)c(C#N)c2)c1=O (some centres unmarked) [Compound 71] | 4.52 to 5.30

Same assay, conditions: imaging and western based activity

Row | SMILES | pEC50
32 | CCC(CC)n1ncn(-c2ccc(N3CCN(c4ccc(OC[C@@H]5CO[C@@](Cn6nccn6)(c6ccccc6)O5)cc4)CC3)cc2)c1=O [Compound 21] | > 6.30
